One series addresses wild-type SUR2A NBD2. The series can be described thus: NBD2 ATPase activity by spectrophotometry, wild-type. The series is classed as biochemical. As to the method: (§1) Cloning of KATP channel subunits and purification of SUR2A ATPase. cDNAs encoding SUR2A and Kir6.2 were subcloned into the expression vector pcDNA3.1. PCR-based site-directed mutagenesis was carried out using primers incorporating identified mutations (QuickChange, Stratagene). The constructs were sequenced to verify mutations and rule out additional changes in sequence. […]
(§2) Enzymology and nucleotide binding. ATPase activity of purified NBD2 was measured in the presence of Mg^2+, as Pi generation detected spectrophotometrically at 360 nm with the EnzChek Phosphate Assay Kit or by monitoring conversion of [γ-^32P]ATP using thin layer chromatography and quantified it with Phosphorlmager and ImageQuant software (Molecular Dynamics) (Zingman et al., 2002, supra). […] Binding of fluorescent ATP analog TNP-ATP to purified NBD2 constructs was determined by fluorescence spectrophotometry (QuantaMaster, PTI) at excitation and emission wavelengths of 410 nm and 540 nm, respectively. […]
(§3) The ADP dissociation constant, KADP, was determined from spectrometric measurement of steady-state NBD2 ATPase activity at [ADP]=O with variable [ATP]. […]

A further series deals with A1513T SUR2A NBD2. The experiment in a line: NBD2 ATPase activity by spectrophotometry, A1513T mutant. The series is classed as biochemical. As to the method:
as §1, §2, §3

The target of a further series is Fs1524 SUR2A NBD2. The experiment in a line: NBD2 ATPase activity by spectrophotometry, Fs1524 mutant. The series is classed as biochemical. As to the method: as §1, §2, §3
Series [1] relates to hypertensive wild-type mice. The series can be described thus: Dobutamine challenge, left ventricular catheterization, hypertensive wild-type. Conditions: dobutamine 15 mg/kg i.p. The class given is in vivo. Here is the method: Left Ventricular Catheterization. Invasive left ventricular pressure recordings were measured in vivo by a 1.4-Fr micropressure catheter (SPR-671, Millar Instruments) following carotid arterial cannulation and advancement across the aortic valve under 2,2,2 tri-bromoethanol ([…] i.p.; Sigma) anesthesia, before and after dobutamine (15 mg/kg i.p.) challenge. Left ventricular developed pressure was defined as the absolute difference between the maximum and minimum left ventricular pressure (mm Hg) and the relaxation time as the time from maximal rate of pressure decay to minimum left ventricular pressure (ms).

Series [2] deals with patient with atrial fibrillation. The class given is in vivo, human. Conditions: for response of atrial fibrillation to antiarrhythmic medical therapy: patient.
For series [3], the system named is wild-type hearts. The series can be described thus: Coronary flow in isolated perfused wild-type hearts. The arrangement: species or system mice.
Series [4] has as its system wild-type hearts. The experiment in a line: Monophasic action potentials in Langendorff-perfused wild-type hearts under isoproterenol. The arrangement: species or system mice. Here is the method: (§4) In situ aortic cannulation and Langendorff perfusion. Mice were anesthetized with intraperitoneal injection of 2,2,2 tri-bromoethanol (0.375 mg/g body weight; Sigma), intubated, ventilated, and the aortic root cannulated in situ (Hodgson et al., 2003, supra). Perfusion was sustained ex vivo on a Langendorff system at 90 cm H2O, with 37° C.-prewarmed and 100% O2-bubbled Tyrode solution (in mM: NaCl 137, KCl 5.4, CaCl2 2, MgCl2 1, HEPES 10, glucose 10; pH 7.4 with NaOH). Following 10-min equilibration, KCl was reduced to 2.7 mM and MgCl2 to 0.35 mM, with the atrioventricular node cauterized to allow ventricular pacing. Coronary flow was monitored with a T106 blood flow meter (Transonic Systems).
(§5) Electrogram and monophasic action potential recordings. Orthogonal electrogram signals were simultaneously recorded using four silver-silver chloride electrodes surrounding the perfused heart in a simulated “Einthoven” configuration, and signals amplified by an electrocardiographic amplifier (Gould Electronics). A catheter (NuMed) was placed in the left ventricular endocardium to pace the heart at twice diastolic threshold intensity with 2 ms pulse width and 100 ms cycle length using a pulse generator (A310 Accupulser, World Precision Instruments). Monophasic action potentials were continuously recorded from the left ventricle by a probe (EP Technologies) positioned on the epicardial surface, and amplified signals (IsoDam, World Precision Instruments) acquired at 11.8 kHz and stored for off-line digital analysis.

Another series has as its system Kir6.2-KO hearts. The experiment in a line: Monophasic action potentials in Langendorff-perfused Kir6.2-KO hearts under isoproterenol. Also on record: species or system mice.
Text: Kir6.2-knockout mice. Mice deficient in KATP channels were generated by targeted disruption of the KCNJ11 gene, which encodes the pore-forming Kir6.2 subunit of the channel complex (Miki et al., 1998, supra). Kir6.2-knockout mice were backcrossed for five generations into a C57BL/6 background. This investigation was approved by the Mayo Clinic Institutional Animal Care and Use Committee.
as §4, §5

A further series relates to Kir6.2 knockout mice. The series can be described thus: Telemetric rhythm monitoring under isoproterenol challenge, KATP channel knockout mice. The class given is in vivo. Conditions: isoproterenol 10 mg/kg injection; within 20 min. An excerpt:
(§6) KATP channel knockout mice were backcrossed for 5 generations to a C57BL/6 background. With approval of the Mayo Foundation Institutional Animal Care and Use Committee, the heart rate and electrocardiogram were continuously monitored in the conscious state. To this end, KATP channel knockout or 8- to 12-week old, age- and sex-matched C57BL/6 wild-type mice were implanted with telemetry devices (Data Sciences International) and leads tunneled subcutaneously under isoflurane anesthesia. Following a 2-week recovery from surgery, serial signals were acquired at 2 kHz before and during isoproterenol challenge.

Another series relates to wild-type mice. The series can be described thus: Telemetric rhythm monitoring under isoproterenol challenge, wild-type mice. The class given is in vivo. Conditions: isoproterenol 10 mg/kg injection.
Text: as §6

In another series the test system is Kir6.1-KO mice. To be noted: mouse, in vivo, sc.
The next series relates to Kir6.1-KO hearts. The experiment in a line: Coronary flow in isolated perfused Kir6.1-KO hearts. The arrangement: species or system mice. Here is the method:
Coronary Flow. The aorta was cannulated in situ. […] Coronary flow was continuously measured with a T106 small animal blood flow meter (Transonic Systems Incorporated). The effect of recombinant murine TNFα was assessed at least 20 min after flow stabilization. […] Maximum vasodilation was defined as the peak increase in coronary flow observed in the wild-type in response to 10 μl of 1 mM adenosine after at least 10 min of return to baseline flow on TNFα washout.

For series [5], the system named is hypertensive wild-type mice. The series can be described thus: Mineralocorticoid/salt hypertension with pharmacologic intervention, wild-type mice. The class given is in vivo. Conditions: verapamil 250 μg orally daily. Here is the method:
KATP Channel Knockout and Experimental Hypertension. KATP channel-deficient mice (Kir6.2-KO) were generated by targeted disruption of the KCNJ11 gene (Miki et al., 1998, PNAS USA, 95:10402-6) which encodes the pore-forming Kir6.2 channel subunit of myocardial but not renal or vascular KATP channels, and backcrossed for 5 generations to a C57BL/6 background. […] Water or salt water intake was measured weekly. All mice were given standard rodent chow, had similar awake non-fasting blood glucose levels measured by tail sampling (Table 2; OneTouch Ultra, Lifescan), were housed individually with a 12 h day/night cycle, and were observed daily until termination of the study at day 21. Following one-week of acclimatization, blood pressure was measured by automated tail-cuff recording (Columbus Instruments) in awake restrained wild-type and Kir6.2-KO mice, 2 weeks post-nephrectomy with or without mineralocorticoid/salt loading. […]
Gross Pathology and Tissue Fibrosis. […] Lung samples were dried at 65° C. for 48 h and reweighed with pulmonary congestion assessed by comparing wet to dry lung weight ratios. Interstitial fibrosis was quantified by computer analysis (MetaMorph, Visitron Universal Imaging) of 0.5-μm thick, paraffin-embedded, Masson's trichrome-stained sections. […] All quantification was performed blinded to the sample origin. […]

Series [6] deals with hypertensive Kir6.2-KO mice. Conditions: verapamil 250 μg orally daily.
Text: KATP Channel Knockout and Experimental Hypertension. KATP channel-deficient mice (Kir6.2-KO) were generated by targeted disruption of the KCNJ11 gene (Miki et al., 1998, PNAS USA, 95:10402-6) which encodes the pore-forming Kir6.2 channel subunit of myocardial but not renal or vascular KATP channels, and backcrossed for 5 generations to a C57BL/6 background. With approval of the Mayo Foundation Institutional Animal Care and Use Committee, Kir6.2-KO or 8- to 12-week old, age-matched, C57BL/6 male wild-type mice had left nephrectomy through a retroperitoneal flank excision under isoflurane-anesthesia to reduce clearance and mineralocorticoid-hypertension was induced for 21 days by subcutaneous implantation of a 50 mg 21-day-release deoxycorticosterone-acetate pellet (Innovative Research of America) and drinking water supplementation with 1% NaCl/0.2% KCl. Control wild-type or Kir6.2-KO mice underwent nephrectomy alone. Water or salt water intake was measured weekly. […] Following one-week of acclimatization, blood pressure was measured by automated tail-cuff recording (Columbus Instruments) in awake restrained wild-type and Kir6.2-KO mice, 2 weeks post-nephrectomy with or without mineralocorticoid/salt loading. Systolic blood pressure was digitally derived from ten sequential recordings.
Gross Pathology and Tissue Fibrosis. At 21 days, whole heart, left ventricle including septum, kidney and lungs were removed, rinsed, blotted dry, and weighed ex vivo. Lung samples were dried at 65° C. for 48 h and reweighed with pulmonary congestion assessed by comparing wet to dry lung weight ratios. Interstitial fibrosis was quantified by computer analysis (MetaMorph, Visitron Universal Imaging) of 0.5-μm thick, paraffin-embedded, Masson's trichrome-stained sections. Kidney or left ventricular collagen content was determined by assaying hydroxyproline content after overnight hydrolysis by 12 N HCl with samples run in duplicate against standard hydroxyproline (Sigma). All quantification was performed blinded to the sample origin.
Isolated Cardiomyocytes, Immunohistochemistry and Calcium Imaging. […]
Series [7] relates to wild-type and mutated SUR2A NBD2. The series can be described thus: TNP-ATP binding to purified NBD2 constructs (fluorescence, Scatchard). Conditions: Scatchard analysis. As to the method:
Enzymology and nucleotide binding. ATPase activity of purified NBD2 was measured in the presence of Mg^2+, as Pi generation detected spectrophotometrically at 360 nm with the EnzChek Phosphate Assay Kit or by monitoring conversion of [γ-^32P]ATP using thin layer chromatography and quantified it with Phosphorlmager and ImageQuant software (Molecular Dynamics) (Zingman et al., 2002, supra). The initial kinetics of ATP hydrolysis was captured by stopped-flow spectroscopy with instantaneous mixing of purified polypeptide and substrate on an SX. 18MV spectrometer (Applied Photophysics). Binding of fluorescent ATP analog TNP-ATP to purified NBD2 constructs was determined by fluorescence spectrophotometry (QuantaMaster, PTI) at excitation and emission wavelengths of 410 nm and 540 nm, respectively.

Setting [8] is: ADP-dependent inhibition at 2 mM ATP, read-out: ADP-dissociation constant (KADP).
[9] abbreviates: 0 ADP, creatine kinase 0.01 U/ml, creatine phosphate 5 mM.

Results on ten molecules are retold here after patent US20060263805A1, “Diagnosing and treating potassium channel defects” (priority 2005, published 2006).

Text for Kir6.1-KO mice: Kir6.1-deficient Mice. Mice deficient in vascular KATP channels (Kir6.1-KO), while maintaining normal KATP channel current in non-vascular tissues including the myocardium, were generated by targeted disruption of the KCNJ8 gene encoding the pore-forming Kir6.1 subunit and backcrossed for more than 5 generations to a C57BL/6 background (Miki et al., 2002, Nat. Med., 8:466-72). Six to eight week-old Kir6.1-KO mice were compared to age and sex matched wild-type littermate controls or to mice lacking non-vascular, including myocardial, KATP channels generated by targeted disruption of the KCNJ11 gene that encodes the Kir6.2 channel pore (Zingman et al., 2002, PNAS USA, 99:13278-83; Suzuki et al., 2001, Circ. Res., 88:570-7). […] Comparisons between groups were performed by analysis of variance, Student's t-tests, non-parametric or log-rank tests, using JMP software (SAS). Data are presented as mean±SEM; n refers to the sample size. P<0.05 was predetermined. All chemicals were obtained from Sigma. The Mayo Foundation Institutional Animal Care and Use Committee approved all experimental protocols.
Endotoxic Shock. The shock state of severe sepsis was modeled by administration of Escherichia coli LPS serotype 0111:B4 (Natanson et al., 1989, J. Exp. Med., 169:823-32; Suffredini et al., 1989, N. Engl. J. Med., 321:280-7). […]

Take `Nc1ncnc2c1ncn2[C@@H]1O[C@H](COP(=O)(O)OP(=O)(O)O)[C@@H](O)[C@H]1O` [ADP]: the Kd at wild-type SUR2A NBD2 (setting [8]) was determined as 8.6 ± 0.3 µM; at A1513T SUR2A NBD2 (setting [8]) it was 24.9 ± 5.6 µM; at Fs1524 SUR2A NBD2 (setting [8]), 11 ± 1.5 µM.

As to `Nc1ncnc2c1ncn2[C@@H]1O[C@H](COP(=O)(O)OP(=O)(O)OP(=O)(O)O)[C@@H](O)[C@H]1O` [ATP], the entries for the “Michaelis-Menten constant of NBD2 ATPase (ATP dependence)” value in the series on wild-type SUR2A NBD2 (setting [9]), in the series with A1513T SUR2A NBD2 (setting [9]) and with Fs1524 SUR2A NBD2 (setting [9]) were 0.11 ± 0.02 mM, 0.094 ± 0.013 mM and 0.084 ± 0.010 mM, respectively.

In the case of `CC(CCc1ccc(O)cc1)NCCc1ccc(O)c(O)c1` (stereo not drawn) [dobutamine], the “response to inotropic challenge” value in series [1] is given as “normal contractile response to the same stress challenge with no death”.

Turning to `O=C(NCC1CCCCN1)c1cc(OCC(F)(F)F)ccc1OCC(F)(F)F` (stereo not drawn) [flecainide], the “response of atrial fibrillation to antiarrhythmic medical therapy” value in [2] is reported as “refractory and/or intolerant”.

On to `COc1ccc(Cl)cc1C(=O)NCCc1ccc(S(=O)(=O)NC(=O)NC2CCCCC2)cc1` [glyburide], for which the “TNFα-induced increase in coronary flow after glyburide pre-treatment” value in the series with wild-type hearts [3] (10 min perfusion of 10 μM glyburide before TNFα) is “not observed”.

For the molecule `CC(C)NCC(O)c1ccc(O)c(O)c1` (stereo not drawn) [isoproterenol], the “hearts with isoproterenol-induced afterdepolarizations complicated by triggered activity” value in the series on wild-type hearts [4] (1 out of 6) came out at 16%; in the series with Kir6.2-KO hearts (Kir6.2-KO hearts, 6 out of 8) it was 75%. Besides, the “monophasic action potential duration at 90% repolarization (APD90) after isoproterenol” value with wild-type hearts [4] (10-min perfusion, isoproterenol 1 mM, before 82±2) was determined as 74 ± 2 ms; in the series with Kir6.2-KO hearts (Kir6.2-KO hearts, 10-min perfusion, isoproterenol 1 mM, before 79±3), 80 ± 3 ms. The “early afterdepolarizations, share of action potentials examined” value in the series with wild-type hearts [4] (isoproterenol challenge) was 1±1%; in the series on Kir6.2-KO hearts (Kir6.2-KO hearts, isoproterenol challenge) it was 97±2%. Moreover, the “fold higher risk of premature ventricular complexes, Kir6.2-KO versus wild-type” value with Kir6.2-KO hearts (isoproterenol challenge) worked out at 16 fold. In addition, the “knockouts with atrial fibrillation” value in the series with Kir6.2 knockout mice was determined as 70%. In addition, the “cardiac rhythm after isoproterenol” value in the series with wild-type mice is given as “maintained normal sinus rhythm”. Besides, the “atrial fibrillation under isoproterenol infusion” value in [2] (patient with ABCC9 mutation, before ablation) is recorded as “provoked”.

Turning to `CC(C)NCC(O)c1ccc(NS(C)(=O)=O)cc1` (stereo not drawn) [sotalol], the “complication of drug use” value in series [2] (human, in vivo) is recorded as “symptomatic bradycardia”. Besides, the “response of atrial fibrillation to antiarrhythmic medical therapy” value in series [2] is listed as “refractory and/or intolerant”.

`COc1ccc(CCN(C)CCCC(C#N)(c2ccc(OC)c(OC)c2)C(C)C)cc1OC` (stereo not drawn) [verapamil] returned a median survival time with Kir6.1-KO mice of 24 h. The “coronary vasodilation in TNFα-challenged hearts” value in the series on Kir6.1-KO hearts (1 μM verapamil after TNFα) was “reinstated coronary vasodilation”. Besides, the left ventricular hypertrophy result in series [5] is recorded as “not affected”. For the same molecule, in series [6] (hypertensive Kir6.2-KO), the mortality result is on record as “prevention of all mortality” and the “syndrome of heart failure including lung congestion” value is “averted”. Also, the “degree of systemic hypertension” value in [6] is “did not affect”.

Take TNFα: in the series on wild-type hearts [3] (recombinant TNFα 4 μg/l), the “coronary vasodilation (coronary flow) under TNFα” value is on record as “induced maximal coronary vasodilation”. The “TNFα-induced increase in coronary flow” value in the series with Kir6.1-KO hearts (4, 8 or 20 μg/l TNFα) is “not observed”.

In the case of TNP-ATP, the “binding affinity of TNP-ATP, wild-type versus mutated NBD2” value in [7] was “similar”.
